These results are taken from publication PMC12648656, “Palladium(II) Complexes with Noncovalent Interactions with DNA: Solution Speciation Controlled by Solvent Identity, pH, and Concentration” (Inorganic Chemistry, 2025).

≈ marks a conversion by molar mass, not a printed value. Where two headings read alike, the source gives them in different places.

In series [1] the test system is calf thymus-DNA (CT-DNA). Nature of the series: Viscometry with CT-DNA. Type of series: binding. Conditions: compound/DNA ratios 0.0 to 1.0; 5 mM Tris, 100 mM NaCl, pH 7.40, 25.0 °C. As to the method: […] Then, the samples were incubated at 37 °C and with constant shaking at 300 rpm for 10 min and 1 h. After each incubation, the viscosity was measured at a constant temperature of 25.0 ± 0.2 °C in a vibrational viscometer. The relative viscosity was calculated by taking the mean values of three replicate measurements, and the values were represented by plotting the values of relative viscosity of CT-DNA (η/η0)^1/3 against 1/R.

In another series the test system is pBR322 plasmid DNA. Nature of the series: Agarose gel electrophoresis mobility shift. Type of series: binding. Conditions: r i 0.01 to 0.20, 24 h, 37 °C. The protocol: Complexes (2) and (3) were incubated at 37 °C with a concentration of 0.0625 μg/μL pBR322 plasmid DNA at different concentrations expressed as r i = complex:DNA (base pair) ratio. The r i used was from 0.01 to 0.20, in a total volume of 20 μL. After an incubation period of 24 h, the mobility of the complex-treated pBR322 samples was analyzed by gel electrophoresis at 70 V in Tris/acetate/EDTA buffer. A control of pBR322 was also incubated, and a 1 kb ladder aliquot was loaded into lane 1 of the gel. The gel was stained with an ethidium bromide aqueous solution, and DNA bands were visualized with a UV-transilluminator UVITEC Cambridge UVIDOC HD2 instrument. The studies were performed with 3% (v/v) DMSO as the final solution.

The subject of series [2] is Colo 205 human colon cancer cell line. More on the design: method as in marks after cisplatin lost in b83 (probably 43, 44). Conditions: Colo 205, 72 h exposure; ref marks after cisplatin lost in b83 (probably 43, 44); cited from earlier work.
In series [3] the test system is MCF7 human breast cancer cell line. Set-up: method as in marks after cisplatin lost in b83 (probably 43, 44). Conditions: MCF7, 72 h exposure; ref marks after cisplatin lost in b83 (probably 43, 44); cited from earlier work.
In series [4] the target is T1, hen egg white lysozyme (HEWL) (Gallus gallus, UniProt P00698).
T1 construct: a model protein, namely HEWL (hen egg white lysozyme), was also studied; from tissue; host or cells: hen egg white (from the protein's name)
T1 sequence (P00698 19-147): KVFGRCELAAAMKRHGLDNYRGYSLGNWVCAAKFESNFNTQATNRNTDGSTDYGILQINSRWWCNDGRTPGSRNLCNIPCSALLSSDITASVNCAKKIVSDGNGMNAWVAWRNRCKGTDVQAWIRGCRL
More on the design: method as in not given. Conditions: reported under the same conditions; ref not given; cited from earlier work.

In series [5] the test system is Colo 205 human colon cancer cell line. The series can be described thus: In vitro cytotoxicity, MTT. Type of series: cell-based. As to conditions: Colo 205, 72 h exposure. The protocol:
(§1) Cell culture reagents were obtained from Merck, and plasticware was obtained from Sarstedt. Human colon adenocarcinoma cell line Colo 205 (ATCC CCL-222) and MCF7 (ATCC HTB-22) breast cancer cells were purchased from LGC Promochem. Cancer cells were cultured in RPMI 1640 medium supplemented with 10% heat-inactivated fetal bovine serum, 2 mM L-glutamine, and 1 mM sodium pyruvate and buffered with 100 mM HEPES. The cells were incubated at 37 °C in a 5% CO2, 95% air atmosphere and were detached with Trypsin-Versene (EDTA) solution for 5 min at 37 °C.
(§2) The tested ligands were dissolved in DMSO, and the stock solutions (5 mM) were diluted in complete culture medium. Two-fold serial dilutions of compounds were made in 100 μL of the medium, horizontally. The semiadherent colon adenocarcinoma cells were treated with Trypsin-Versene (EDTA) solution. They were adjusted to a density of 1 × 10^4 cells in 100 μL of RPMI 1640 medium and were added to each well, with the exception of the medium control wells. The final volume of the wells containing compounds and cells was 200 μL. The plates containing the cells were incubated at 37 °C for 72 h; at the end of the incubation period, 20 μL of MTT solution (5 mg/mL) was added to each well. After incubation at 37 °C for 4 h, 100 μL of sodium dodecyl sulfate solution (10% in 0.01 M HCl) was added to each well, and the plates were further incubated at 37 °C overnight. Cell growth was determined by measuring the optical density (OD) at 540 and 630 nm with a Multiskan EX plate reader (Thermo Labsystems).
(§3) Curves for the data obtained on cancer cells were fitted by GraphPad Prism software using the sigmoidal dose–response model (comparing variable and fixed slopes). The IC50 values were always obtained from at least three independent experiments.

The target of series [6] is T1, hen egg white lysozyme (HEWL). The series can be described thus: Reaction with lysozyme followed by UV-vis at 280 nm, pseudo-first-order kinetics. As to conditions: metal:protein 3:1, 5 mM Tris/3% DMSO, 37 °C, absorbance at 280 nm. The class given is binding. The protocol:
The interaction of complexes (2) and (3) with hen egg white lysozyme (HEWL) was investigated using a 10^–5 M solution of the protein. Lysozyme is a widely used model protein for studying the binding of potential metallodrugs. The sample preparation for this assay was carried out using the same protocol of the samples for the DNA interactions studies by UV–vis spectrophotometry. The integrity of the enzyme was checked in each experiment, with a comparison of fresh and incubated samples. UV–vis spectra were recorded before and after incubation with the complex (dissolved in 97% 5 mM Tris/3% DMSO) for 24 h at 37 °C. A metal to protein ratio of 3:1 was used for these studies, a ratio that affords similar results to 10:1 and eases the sample preparation. The experimental time-dependent profiles of the spectra were analyzed as pseudo-first-order reactions by plotting the variation of the absorbance as a function of time.

Series [7] has as its system Enterococcus faecalis (ATCC 29212). The series can be described thus: Antibacterial MIC, broth dilution. Type of series: cell-based. As to the method:
(§4) Antibacterial activity was determined for the title compounds in various Gram-negative and Gram-positive bacterial strains, namely Klebsiella pneumoniae, Escherichia coli (ATCC 25922), Staphylococcus aureus (272123), methicillin-resistant Staphylococcus aureus (ATCC 43300), and Enterococcus faecalis (ATCC 29212). The stock solutions of the tested compounds were prepared in DMSO at a 5 mM concentration. […] All stock solutions were diluted in 100 μL of Mueller Hinton Broth, and then two-fold serial dilutions were performed. Then, a 10^–4 dilution of an overnight bacterial culture in 100 μL of medium was added to each well, except for the medium control wells. The highest concentration of the compounds in the tested samples was 100 μM. The plates were incubated at 37 °C for 18 h. After that, the MIC values were determined by visual inspection.

Series [8] concerns Escherichia coli (ATCC 25922). Nature of the series: Antibacterial MIC, broth dilution. Type of series: cell-based. The protocol: as §4
The next series deals with Klebsiella pneumoniae. The series can be described thus: Antibacterial MIC, broth dilution. Type of series: cell-based. Conditions: 18 h. As to the method:
as §4

Series [9] concerns Staphylococcus aureus (272123). The series can be described thus: Antibacterial MIC, broth dilution. The class given is cell-based. As to conditions: 18 h. The protocol: as §4
For orientation: Dilution methods test growth across graded concentrations, often in twofold steps.

The subject of series [10] is methicillin-resistant Staphylococcus aureus (ATCC 43300). Nature of the series: microbe, parasite or virus in culture. The class given is cell-based. As to conditions: 18 h. As to the method: as §4
Another series relates to glutathione (GSH). Nature of the series: Reaction with glutathione followed by UV-vis. Conditions: 30-fold GSH, ~20 μM complex, 60% (v/v) DMSO/phosphate buffer pH 7.4, 25.0 °C. The protocol: Reactions between the title compounds and GSH were also followed by UV–vis spectrophotometry under an inert atmosphere to overcome oxidation of GSH by air oxygen. Samples contained the metal complexes at low concentrations (∼20 μM) and were prepared using 60% (v/v) DMSO/phosphate buffer solution (pH 7.4) to avoid precipitation. The reactants were separated in the pockets of a tandem cuvette, followed by deoxygenation by argon bubbling. The separate solutions were mixed at 1:30 metal complex:GSH molar ratios, and UV–vis spectra were recorded. Argon was continuously passed over the sample during the whole measurement.

In series [11] the test system is calf thymus-DNA (CT-DNA). The series can be described thus: UV-vis titration with CT-DNA. Type of series: binding. Conditions: complex/DNA ratio 0 to 0.79; 5 mM Tris, 50 mM NaCl, pH 7.40, 25 °C. As to the method:
To investigate the potential binding ability of the palladium complexes (2) and (3) with DNA, UV–vis titrations (240 to 700 nm) were performed at room temperature. During the titrations, the CT-DNA concentration (5.08 × 10^–5 M) was kept constant, while the concentration of each complex (0 to 2.00 × 10^–5 M) was varied. The changes in the typical absorbance of CT-DNA at 260 nm were monitored after equilibration (10 min) and after 1 h of incubation at 37 °C. […] Control experiments with DMSO were performed, and no changes in the CT-DNA spectrum were observed.

Series [12] is described as follows: Spectrophotometric (UV-vis) pH titrations for proton dissociation constants. Type of series: physicochemical. As to conditions: I = 0.10 M (KCl), 25.0 °C. As to the method:
Spectrophotometric titrations were applied to study the equilibrium processes (proton dissociation and complex dissociation/formation) in DMSO/H2O mixtures due to the limited aqueous solubility of the compounds. The calibration of the electrode system was performed by strong acid–strong base pH-potentiometric titrations in 30% (v/v) and 60% (v/v) DMSO/H2O solvent mixtures at 25.0 ± 0.1 °C as described in our previous works. , KCl (0.1 M) was the supporting electrolyte to maintain constant ionic strength, which refers to the chloride ion concentration in blood plasma. […] The initial sample volume was 5 mL. Spectrophotometric titrations were performed in the pH range 1.8–12.5 for 30% (v/v) DMSO/H2O medium and 1.8–14.0 for 60% (v/v) DMSO/H2O medium. Prior to the titrations, purified argon was passed through the samples for approximately 10 min to remove CO2 traces, and argon was also passed over the samples during these measurements. The proton dissociation constants were calculated by using the computer program PSEQUAD.

The nature of series [13]: n-Octanol/water and n-octanol/Tris buffer shake-flask partitioning. Type of series: physicochemical. As to the method: The distribution coefficient values (D 7.4) of the compounds were determined by the traditional shake-flask method in n-octanol/buffered aqueous solution at pH 7.40 for 5 mM Tris HCl with 0.1 M KCl and at pH 7.4 at 25.0 ± 0.2 °C. The ligand and complexes were dissolved in n-octanol (presaturated by the aqueous buffer) because of the very low aqueous solubility. The aqueous buffer solution and n-octanol ratio was 1:1 due to the expected high lipophilicity of the compounds. First, samples were mixed with vertical rotation (∼20 rpm) for 3 h, and then the two phases were separated by centrifugation at 3000 rpm (∼1000g) for 3 min. After separation, UV–vis spectra of the compounds were recorded in both phases. Spectra of the n-octanol phases were compared to those of the original n-octanol stock solutions.
The distribution coefficient values were also determined using unbuffered water and octanol (also presaturated) with a ratio of 1:1.

The subject of series [14] is MCF7 human breast cancer cell line. The series can be described thus: In vitro cytotoxicity, MTT. Type of series: cell-based. As to conditions: Homo sapiens; MCF7, 72 h exposure. The protocol:
as §1, §2, §3

The nature of another series: Solubility observations. The class given is physicochemical. Conditions: as observed; aqueous solution for HL.

For the compound `N.N.[Cl][Pt][Cl]` [Cisplatin], in the series with calf thymus-DNA (CT-DNA) [1], the “effect on relative viscosity of CT-DNA” value is “relative viscosity of the solution decreases”. In addition, in the series with pBR322 plasmid DNA, the “effect on electrophoretic mobility of pBR322 (two forms, SC and OC)” value was “changes in the mobility of the pBR322 isoforms”. The IC50 (commonly the concentration at which inhibition is half-maximal) in series [2] is 23 ± 1 µM; in series [3], 15 ± 0.01 µM. In addition, in series [4], the “observed rate constant k obs” value is reported as 1.98 × 10^–4 s^–1.

Turning to “Chlorido(dimethyl sulfoxide)(1H-imidazole-4-carboxaldehyde-4N-p-chlorophenylthiosemicarbazonato)palladium(II) [(3)]”, in series [5], the IC50 was 16.2 ± 1.18 µM. The “observed rate constant k obs” value in series [6] is listed as “(8.75 ± 0.09) × 10^–5 s^–1”. Also, the MIC in series [7] (E. faecalis, 18 h, 37 °C) is over 100 µM; in [8] (E. coli, 18 h, 37 °C) it was over 100 µM; against Klebsiella pneumoniae (K. pneumoniae, 37 °C), over 100 µM; in series [9] (S. aureus, 37 °C) it was over 100 µM; in series [10] (S. aureus (MRSA), 37 °C), over 100 µM. The “time to equilibrium of the reaction with GSH” value in the series on glutathione (GSH) is at most 30 min. Moreover, the “change of CT-DNA absorption at 260 nm” value in the series on calf thymus-DNA (CT-DNA) [11] is “absorption values of DNA–complex samples increase”. Further, in the series with pBR322 plasmid DNA, the “effect on electrophoretic mobility of supercoiled pBR322 (pure form)” value is “small unwinding”.

Regarding `S=C(N/N=C/c1c[nH]cn1)Nc1ccc(Cl)cc1` [HL, 1H-Imidazole-4-carboxaldehyde(4N-p-chlorophenyl)thiosemicarbazone], the pKa is 4.38 ± 0.03 in series [12] (30% (v/v) DMSO/H2O solvent mixture, 30% (v/v) DMSO/H2O, read-out: pKa1); 10.96 ± 0.04 in series [12] (30% (v/v) DMSO/H2O solvent mixture, 30% (v/v) DMSO/H2O, read-out: pKa2); 3.81 ± 0.02 in [12] (60% (v/v) DMSO/H2O solvent mixture, 60% (v/v) DMSO/H2O, read-out: pKa1); 11.12 ± 0.01 in series [12] (60% (v/v) DMSO/H2O solvent mixture, 60% (v/v) DMSO/H2O, read-out: pKa2); 4.58 in series [12] (pure water (0% DMSO), predicted value, 0% DMSO (pure water), predicted value, read-out: pKa1); 10.9 in [12] (pure water (0% DMSO), predicted value, 0% DMSO (pure water), predicted value, read-out: pKa2). The logD in [13] (n-octanol/Tris HCl buffer, pH 7.4, n-octanol/5 mM Tris HCl with 0.1 M KCl, pH 7.40, 25.0 °C, read-out: log D o/t) came out at 1.58; in series [13] (n-octanol/pure (unbuffered) water, 1:1, read-out: log D o/w) it was 0.9. The 50% inhibitory concentration (IC50) in series [5] (Homo sapiens) came out at 19.1 ± 0.6 µM; in [14], 2.97 ± 0.32 µM. In addition, the MIC is 100 µM (≈ 28 µg/mL) in series [7] (Enterococcus faecalis, ATCC29212, 18 h); 25 µM (≈ 6.99 µg/mL) in series [8] (Escherichia coli, ATCC25922, 18 h); over 100 µM against Klebsiella pneumoniae (Klebsiella pneumoniae); 100 µM (≈ 28 µg/mL) in series [9] (Staphylococcus aureus); 50 µM (≈ 14 µg/mL) in [10] (Staphylococcus aureus, ATCC 43300 / MRSA). The solubility entry in the series “Solubility observations” was “poor solubility”.
